# From patent EP1981504B1, “THIADIAZOLE DERIVATIVES FOR THE TREATMENT OF NEURO DEGENERATIVE DISEASES” (NV reMYND, priority 2006, dated 2007)
# System: M17-SYNwt cells
# Experiment: α-synuclein cytotoxicity assay (LDH leakage from paraquat-treated α-synuclein over-expressing neuroblastoma cells)
# Type: cell-based, human
# Details: for EC50: Homo sapiens, Neuroblastoma cell; for EC50 / %I / EC50 (µg/mL): paraquat 32 mM, 40 hours, LDH release; for EC50 / EC50 (µg/mL): 10 point curves in duplicate; for %I: percent inhibition of synuclein cytotoxicity at most effective concentration of test compound, relative to untreated paraquat cells
# Method: Subsequently, LDH activity was determined using Promega Cytotox 96 NonRadioactive cytotoxicity assay, (Cat. G1780) according the supplier's instructions.
# This corresponds to the following equation: (LDHreleaseoftreatedparaquatcellsatnon-effectiveconcentrationoftestcmpd)−(LDHreleaseoftreatedparaquatcellsatmosteffectiveconcentrationoftestcmpd)/(LDHreleaseofuntreatedparaquatcells)−(LDHreleasecontrolcells)*100% [formula]
# 1,2,4-thiadazole compounds made according to the methods described herein were screened for activity using the α-synuclein cytotoxicity assay as described above. Dose responses were carried out on all compounds found to be active (10 point curves in duplicate).
Molecule,EC50,%I,EC50 (µg/mL),"LDH activity in the medium (Figure 2, dose response in paraquat-treated M17-SYNwt cells)"
"COc1ccccc1C(=O)N1CCN(c2nc(Cc3ccc(F)cc3)ns2)CC1C (stereo not shown) [Compound 133, 1-(2-methoxybenzoyl)-4-[3-(4-fluorobenzyl)-1,2,4-thiadiazol-5-yl]-2-methylpiperazine]",0.29 µg/mL,118%,–,–
"CC1CN(c2nc(Cc3ccc(F)cc3)ns2)CCN1C(=O)C(Cl)c1ccccc1 (stereo not shown) [Compound 7, 1-[chloro(phenyl)acetyl]-4-[3-(4-fluorobenzyl)-1,2,4-thiadiazol-5-yl]-2-methylpiperazine]",–,69%,–,–
"Cc1ccccc1N1CCN(c2nc(Cc3ccc(F)cc3)ns2)CC1 [Compound 185, 1-(2-methylphenyl)-4-[3-(4-fluorobenzyl)-1,2,4-thiadiazol-5-yl]piperazine]",0.38 µg/mL,114%,–,–
"Cc1ccc(Cc2nsc(N3CCN(S(=O)(=O)c4cc(Cl)ccc4Cl)C(C)C3)n2)cc1 (stereo not shown) [Compound 36, 1-[2,5-dichlorophenylsulfonyl]-4-[3-(4-methylbenzyl)-1,2,4-thiadiazol-5-yl]-2-methylpiperazine]",0.1 µg/mL,52%,–,–
"Cc1ccc(Cc2nsc(N3CCN(S(=O)(=O)C(C)C)CC3)n2)cc1 [Compound 85, 1-(isopropylsulfonyl)-4-[3-(4-methylbenzyl)-1,2,4-thiadiazol-5-yl]piperazine]",3.65 µg/mL,69%,–,–
"CC1CN(c2nc(Cc3ccc(F)cc3)ns2)CCN1C(=O)c1ccc(Br)cc1 (stereo not shown) [Compound 135, 1-(4-bromobenzoyl)-4-[3-(4-fluorobenzyl)-1,2,4-thiadiazol-5-yl]-2-methylpiperazine]",0.31 µg/mL,73%,–,–
"CC1CN(c2nc(Cc3ccc(F)cc3)ns2)CCN1C(=O)Nc1cccc2ccccc12 (stereo not shown) [Compound 25, N-1-naphtyl-4-[3-(4-fluorobenzyl)-1,2,4-thiadiazol-5-yl]-2-methylpiperazine-1-carboxamide]",1.69 µg/mL,97%,–,–
"O=C(Cc1ccc(F)cc1)NCCN1CCN(c2nc(Cc3ccc(F)cc3)ns2)CC1 [Compound 107, 2-(4-fluorophenyl)-N-{2-[4-[3-(4-fluorobenzyl)-1,2,4-thiadiazol-5-yl]piperazin-1-yl]ethyl}acetamide]",0.26 µg/mL,80%,–,–
"COc1cccc(Cc2nsc(N3CCN(C(=O)c4ccc(F)cc4)C(C)C3)n2)c1 (stereo not shown) [Compound 123, 1-(4-fluorobenzoyl)-4-[3-(3-methoxybenzyl)-1,2,4-thiadiazol-5-yl]-2-methylpiperazine]",0.14 µg/mL,95%,–,–
"Cc1ccc(Cc2nsc(N3CCN(S(=O)(=O)c4cccc(C(F)(F)F)c4)C(C)C3)n2)cc1 (stereo not shown) [Compound 56, 1-[3-trifluoromethylphenylsulfonyl]-4-[3-(4-methylbenzyl)-1,2,4-thiadiazol-5-yl]-2-methylpiperazine]",–,87%,–,–
"CC(C)(C)c1ccc(S(=O)(=O)N2CCN(c3nc(Cc4ccc(F)cc4)ns3)CC2)cc1 [Compound 61, 1-[4-ter-butylphenylsulfonyl]-4-[3-(4-fluorobenzyl)-1,2,4-thiadiazol-5-yl]piperazine]",–,47%,–,–
"1-(phenylprop-2-ensulfonyl)-4-[3-(4-methylbenzyl)-1,2,4-thiadiazol-5-yl]-2-methylpiperazine [Compound 79]",–,53%,"0,17 µg/mL",–
"Cc1cccc(C)c1NC(=O)N1CCN(c2nc(Cc3ccc(F)cc3)ns2)CC1C (stereo not shown) [Compound 19, N-(2,6-dimethylphenyl)-4-[3-(4-fluorobenzyl)-1,2,4-thiadiazol-5-yl]-2-methylpiperazine-1-carboxamide]",0.2 µg/mL,95%,–,"able, in a dose-dependent manner, to reduce LDH activity in the medium"
"O=S(=O)(c1cc(Cl)ccc1Cl)N1CCN(c2nc(Cc3ccc(Cl)cc3)ns2)CC1 [Compound 39, 1-[2,5-dichlorophenylsulfonyl]-4-[3-(4-chlorobenzyl)-1,2,4-thiadiazol-5-yl]piperazine]",0.16 µg/mL,25%,–,–
"O=S(=O)(c1ccccc1)N1CCN(c2nc(Cc3ccc(F)cc3)ns2)CC1 [Compound 198, 1-phenylsulfonyl-4-[3-(4-fluoro-benzyl)-1,2,4-thiadiazol-5-yl]piperazine]",0.146 µg/mL,25%,–,–
"CC1CN(c2nc(Cc3ccc(F)cc3)ns2)CCN1C(=O)Nc1ccccc1C(F)(F)F (stereo not shown) [Compound 18, N-(2-trifluoromethylphenyl)-4-[3-(4-fluorobenzyl)-1,2,4-thiadiazol-5-yl]-2-methylpiperazine-1-carboxamide]",–,41%,–,–
"CCCCCc1ccc(C(=O)NCCN2CCN(c3nc(Cc4ccc(F)cc4)ns3)CC2)cc1 [Compound 94, 4-pentyl-N-{2-[4-[3-(4-fluorobenzyl)-1,2,4-thiadiazol-5-yl]piperazin-1-yl]ethyl}benzamide]",0.35 µg/mL,90%,–,–
"CCc1ccc(C(=O)N2CCN(c3nc(Cc4ccc(C)cc4)ns3)CC2C)cc1 (stereo not shown) [Compound 147, 1-(4-ethylbenzoyl)-4-[3-(4-methylbenzyl)-1,2,4-thiadiazol-5-yl]-2-methylpiperazine]",0.84 µg/mL,88%,–,–
"CC1CN(c2nc(Cc3ccc(F)cc3)ns2)CCN1C(=O)c1ccc2ccccc2c1 (stereo not shown) [Compound 132, 1-(2-naphthoyl)-4-[3-(4-fluorobenzyl)-1,2,4-thiadiazol-5-yl]-2-methylpiperazine]",0.26 µg/mL,74%,–,–
"CC1CN(c2nc(Cc3ccc(F)cc3)ns2)CCN1C(=O)c1ccccc1 (stereo not shown) [Compound 126, 1-benzoyl-4-[3-(4-fluorobenzyl)-1,2,4-thiadiazol-5-yl]-2-methylpiperazine]",0.21 µg/mL,63%,–,–
"Cc1ccc(Cc2nsc(N3CCN(C(=O)c4ccccc4)CC3)n2)cc1 [Compound 158, 1-benzoyl-4-[3-(4-methylbenzyl)-1,2,4-thiadiazol-5-yl]piperazine]",2.1 µg/mL,57%,–,–
"COc1cccc(S(=O)(=O)N2CCN(c3nc(Cc4ccc(F)cc4)ns3)CC2)c1 [Compound 44, 1-[3-methoxyphenylsulfonyl]-4-[3-(4-fluorobenzyl)-1,2,4-thiadiazol-5-yl]piperazine]",0.0571 µg/mL,99%,–,–
"Fc1ccc(Cc2nsc(N3CCN(Cc4ccc5c(c4)OCO5)CC3)n2)cc1 [Compound 114, 1-(1,3-benzodioxol-5-ylmethyl)-4-[3-(4-fluorobenzyl)-1,2,4-thiadiazol-5-yl]piperazine]",–,86%,–,–
"COc1ccc(S(=O)(=O)N2CCN(c3nc(Cc4ccc(Cl)cc4)ns3)CC2)cc1 [Compound 31, 1-[4-methoxyphenylsulfonyl]-4-[3-(4-chlorobenzyl)-1,2,4-thiadiazol-5-yl]piperazine]",0.000169 µg/mL,59%,–,–
"COc1cc(NC(=O)N2CCN(c3nc(Cc4ccc(F)cc4)ns3)CC2C)cc(OC)c1 (stereo not shown) [Compound 29, N-(3,5-dimethoxyphenyl)-4-[3-(4-fluorobenzyl)-1,2,4-thiadiazol-5-yl]-2-methylpiperazine-1-carboxamide]",–,51%,–,–
"Cc1cccc(C)c1NC(=O)N1CCN(c2nc(Cc3ccc(F)cc3)ns2)CC1 [Compound 24, N-(2,6-dimethylphenyl)-4-[3-(4-fluorobenzyl)-1,2,4-thiadiazol-5-yl]piperazine-1-carboxamide]",1.2 µg/mL,124%,–,–
"3-phenyl-N-{2-[4-[3-(4-fluorobenzyl)-1,2,4-thiadiazol-5-yl]piperazin-1-yl]ethyl}propanamide [Compound 112]",–,91%,"0,55 µg/mL",–
